IC50 data for three compounds are collected here from patent US20150202186A1, “CYSTATHIONINE-(gamma)-LYASE (CSE) INHIBITORS FOR TREATING PAIN” (SOVA PHARMACEUTICALS, INC., priority 2014, published 2015).

pIC50: −log10 of the molar value.

This assay deals with recombinant CSE (cystathionine-γ-lyase) (UniProt P32929). The experiment in a line: CSE In Vitro Assay.
`CCN(N)c1nnn[nH]1` [Compound 13]: the pIC50 (usually −log10 of the IC50, conventionally taken in molar units) is above 4.60.
With `COCCN(N)c1nnn[nH]1` [Compound 15], the negative logarithm of the IC50 (pIC50) was 4.00 to 4.60.
As for `CN(N)c1nnn(C)n1` [Compound 38], the figure is below 4.00.
